Source: article PMC5363373, “Zirconium tetraazamacrocycle complexes display extraordinary stability and provide a new strategy for zirconium-89-based radiopharmaceutical development” (Chemical Science, 2016)

Columns and labels:
[1] = In vitro serum stability (radio-ITLC); format: in vitro ADME; conditions: 37 C, after 7 days
Outline: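 89Zr-labeled complexes (70 μCi, 2.59 MBq) incubated in human serum at 37 °C for 7 days (n=4). Analyzed daily by radio-ITLC on ITLC-SA strips with 0.1 M EDTA (pH 5) mobile phase and gamma counting; SEC in PBS after 7 days.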

Biodistribution studies = format: in vivo, female NIH Swiss mice; conditions: mice
Outline: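 Female NIH Swiss mice (6-8 wk, n=6) received 89Zr-labeled complex, 0.55 MBq (15 μCi)/mouse i.v. via tail vein; organs excised at 2, 4, 24, 48, 72 h, weighed and gamma-counted. %ID/g and %ID/organ derived against a weighed, counted standard; mean±SD, two-tailed unpaired t test.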

[2] = In vitro metal competition study; format: physicochemical; conditions: PBS pH 7.4, 37 C
Outline: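 Each 89Zr-labeled complex (0.1 mM stock) in PBS, pH 7.4, was mixed with 1 mM solutions of Fe(III), Co(II), Zn(II), Cu(II), Mg(II), Ga(III) or Gd(III) salts. Mixtures were incubated at 37 °C for 7 days. 89Zr release was tracked by radio-TLC at 2 h, 1 d, 4 d and 7 d, in triplicate.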

[3] = In vitro EDTA challenge study; format: physicochemical
Outline: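 Each 89Zr-labeled complex incubated at 37 °C for up to 7 days with EDTA (10, 50 or 100 mM; pH 5 or 7) at 1:100, 1:500 and 1:1000 ligand/EDTA ratios, n=4. Intact fraction sampled from 30 min to 7 d by radio-TLC (0.1 M EDTA pH 5 mobile phase) and gamma counting.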

[4] = intravenous, 72 h post-injection

Radio-ITLC peak of complex in human serum [1]: 100%
Radioactivity in blood (Biodistribution studies; [4]): 0.0003 ± 0.0005 % ID per g
Radioactivity in bone (Biodistribution studies; [4]): 0.079 ± 0.014 % ID per g
Radioactivity in kidney (Biodistribution studies; [4]): 0.69 ± 0.098 % ID per g
Radioactivity in liver (Biodistribution studies; [4]): 0.066 ± 0.009 % ID per g
Radioactivity retention in bone tissue over time (Biodistribution studies; time points up to 72 h): increases over time
% Intact of 89Zr-complexes ([2]; Co2+, 2 h): 99.2 ± 0.2%
% Intact of 89Zr-complexes ([2]; Co2+, 1 d): 98.3 ± 0.4%
% Intact of 89Zr-complexes ([2]; Co2+, 4 d): 98.1 ± 0.3%
% Intact of 89Zr-complexes ([2]; Co2+, 7 d): 95.4 ± 0.9%
% Intact of 89Zr-complexes ([2]; Cu2+, 2 h): 98.9 ± 0.5%
% Intact of 89Zr-complexes ([2]; Cu2+, 1 d): 98.6 ± 0.4%
% Intact of 89Zr-complexes ([2]; Cu2+, 4 d): 97.3 ± 0.7%
% Intact of 89Zr-complexes ([2]; Cu2+, 7 d): 96.0 ± 1.0%
% Intact of 89Zr-complexes ([2]; Fe3+, 2 h): 96.5 ± 0.2%
% Intact of 89Zr-complexes ([2]; Fe3+, 1 d): 76.1 ± 1.3%
% Intact of 89Zr-complexes ([2]; Fe3+, 4 d): 53.2 ± 3.8%
% Intact of 89Zr-complexes ([2]; Fe3+, 7 d): 33.9 ± 1.5%
% Intact of 89Zr-complexes ([2]; Fe3+, 7 d, listed as 89Zr–DFO): 33.9%
% Intact of 89Zr-complexes ([2]; Ga3+, 2 h): 99.3 ± 0.2%
% Intact of 89Zr-complexes ([2]; Ga3+, 1 d): 93.4 ± 2.6%
% Intact of 89Zr-complexes ([2]; Ga3+, 4 d): 81.1 ± 0.5%
% Intact of 89Zr-complexes ([2]; Ga3+, 7 d): 72.6 ± 1.3%
% Intact of 89Zr-complexes ([2]; Ga3+, 7 d, listed as 89Zr–DFO): 72.6%
% Intact of 89Zr-complexes ([2]; Gd3+, 2 h): 99.4 ± 0.3%
% Intact of 89Zr-complexes ([2]; Gd3+, 1 d): 98.8 ± 0.1%
% Intact of 89Zr-complexes ([2]; Gd3+, 4 d): 98.4 ± 0.3%
% Intact of 89Zr-complexes ([2]; Gd3+, 7 d): 96.8 ± 0.2%
% Intact of 89Zr-complexes ([2]; Mg2+, 2 h): 99.3 ± 0.1%
% Intact of 89Zr-complexes ([2]; Mg2+, 1 d): 98.6 ± 0.5%
% Intact of 89Zr-complexes ([2]; Mg2+, 4 d): 97.6 ± 0.8%
% Intact of 89Zr-complexes ([2]; Mg2+, 7 d): 96.8 ± 1.2%
% Intact of 89Zr-complexes ([2]; Zn2+, 2 h): 99.5 ± 0.1%
% Intact of 89Zr-complexes ([2]; Zn2+, 1 d): 98.8 ± 0.3%
% Intact of 89Zr-complexes ([2]; Zn2+, 4 d): 97.7 ± 0.6%
% Intact of 89Zr-complexes ([2]; Zn2+, 7 d): 95.9 ± 0.7%
% Intact of 89Zr-complexes ([3]; EDTA 100-fold, pH 5.0, 37 C, 30 min): 93.0 ± 0.7%
% Intact of 89Zr-complexes ([3]; EDTA 100-fold, pH 5.0, 37 C, 1 h): 85.5 ± 0.9%
% Intact of 89Zr-complexes ([3]; EDTA 100-fold, pH 5.0, 37 C, 3 h): 59.6 ± 0.8%
% Intact of 89Zr-complexes ([3]; EDTA 100-fold, pH 5.0, 37 C, 6 h): 29.4 ± 0.7%
% Intact of 89Zr-complexes ([3]; EDTA 100-fold, pH 5.0, 37 C, 1 d): 6.6 ± 0.3%
% Intact of 89Zr-complexes ([3]; EDTA 100-fold, pH 5.0, 37 C, 3 d): 5.4 ± 0.3%
% Intact of 89Zr-complexes ([3]; EDTA 100-fold, pH 5.0, 37 C, 5 d): 4.4 ± 0.2%
% Intact of 89Zr-complexes ([3]; EDTA 100-fold, pH 5.0, 37 C, 7 d): 3.6 ± 0.1%
% Intact of 89Zr-complexes ([3]; EDTA 100-fold, pH 7.0, 37 C, 30 min): 99.0 ± 0.4%
% Intact of 89Zr-complexes ([3]; EDTA 100-fold, pH 7.0, 37 C, 1 h): 96.6 ± 1.1%
% Intact of 89Zr-complexes ([3]; EDTA 100-fold, pH 7.0, 37 C, 3 h): 90.3 ± 0.8%
% Intact of 89Zr-complexes ([3]; EDTA 100-fold, pH 7.0, 37 C, 6 h): 89.4 ± 0.2%
% Intact of 89Zr-complexes ([3]; EDTA 100-fold, pH 7.0, 37 C, 1 d): 88.6 ± 0.2%
% Intact of 89Zr-complexes ([3]; EDTA 100-fold, pH 7.0, 37 C, 3 d): 87.2 ± 0.6%
% Intact of 89Zr-complexes ([3]; EDTA 100-fold, pH 7.0, 37 C, 5 d): 86.6 ± 0.3%
% Intact of 89Zr-complexes ([3]; EDTA 100-fold, pH 7.0, 37 C, 7 d): 83.9 ± 0.5%
% Intact of 89Zr-complexes ([3]; EDTA 500-fold, pH 5.0, 37 C, 30 min): 60.9 ± 1.0%
% Intact of 89Zr-complexes ([3]; EDTA 500-fold, pH 5.0, 37 C, 1 h): 33.9 ± 1.2%
% Intact of 89Zr-complexes ([3]; EDTA 500-fold, pH 5.0, 37 C, 3 h): 3.9 ± 0.4%
% Intact of 89Zr-complexes ([3]; EDTA 500-fold, pH 5.0, 37 C, 6 h): 0%
% Intact of 89Zr-complexes ([3]; EDTA 500-fold, pH 7.0, 37 C, 30 min): 90.3 ± 0.7%
% Intact of 89Zr-complexes ([3]; EDTA 500-fold, pH 7.0, 37 C, 1 h): 81.1 ± 1.1%
% Intact of 89Zr-complexes ([3]; EDTA 500-fold, pH 7.0, 37 C, 3 h): 58.6 ± 0.3%
% Intact of 89Zr-complexes ([3]; EDTA 500-fold, pH 7.0, 37 C, 6 h): 42.7 ± 1.2%
% Intact of 89Zr-complexes ([3]; EDTA 500-fold, pH 7.0, 37 C, 1 d): 36.2 ± 0.7%
% Intact of 89Zr-complexes ([3]; EDTA 500-fold, pH 7.0, 37 C, 3 d): 31.8 ± 1.1%
% Intact of 89Zr-complexes ([3]; EDTA 500-fold, pH 7.0, 37 C, 5 d): 30.4 ± 0.9%
% Intact of 89Zr-complexes ([3]; EDTA 500-fold, pH 7.0, 37 C, 7 d): 28.5 ± 0.4%
% Intact of 89Zr-complexes ([3]; EDTA 1000-fold, pH 5.0, 37 C, 30 min): 37.7 ± 1.1%
% Intact of 89Zr-complexes ([3]; EDTA 1000-fold, pH 5.0, 37 C, 1 h): 14.6 ± 0.7%
% Intact of 89Zr-complexes ([3]; EDTA 1000-fold, pH 5.0, 37 C, 3 h): 0%
% Intact of 89Zr-complexes ([3]; EDTA 1000-fold, pH 7.0, 37 C, 30 min): 85.6 ± 1.1%
% Intact of 89Zr-complexes ([3]; EDTA 1000-fold, pH 7.0, 37 C, 1 h): 68.3 ± 1.2%
% Intact of 89Zr-complexes ([3]; EDTA 1000-fold, pH 7.0, 37 C, 3 h): 45.4 ± 0.7%
% Intact of 89Zr-complexes ([3]; EDTA 1000-fold, pH 7.0, 37 C, 6 h): 32.9 ± 0.5%
% Intact of 89Zr-complexes ([3]; EDTA 1000-fold, pH 7.0, 37 C, 1 d): 28.1 ± 0.7%
% Intact of 89Zr-complexes ([3]; EDTA 1000-fold, pH 7.0, 37 C, 3 d): 24.5 ± 0.8%
% Intact of 89Zr-complexes ([3]; EDTA 1000-fold, pH 7.0, 37 C, 5 d): 21.4 ± 1.2%
% Intact of 89Zr-complexes ([3]; EDTA 1000-fold, pH 7.0, 37 C, 7 d): 20.3 ± 0.5%
Loss of metal ions in EDTA challenge ([3]; after 3 h incubation, 1000-fold excess of EDTA at pH 5): completely lost metal ions
SMILES: CC(=O)N1CCCCCNC(=O)CCC(=O)N2CCCCCNC(=O)CCC(=O)N(CCCCCN)[O][89Zr+]([O]1)[O]2 [89Zr-DFO, reference compound]
